By Ki is commonly meant a measure of affinity in units of concentration, obtained from inhibition or displacement.

The target of this assay is T1, human IL-23R (Homo sapiens, UniProt Q5VWK5).
T1 construct: UniProtKB—Q5VWK5, amino acids 22-629; secretion signal of the plasmid (Promega N1371); expressed in transfected cells
T1 sequence (Q5VWK5 22-629): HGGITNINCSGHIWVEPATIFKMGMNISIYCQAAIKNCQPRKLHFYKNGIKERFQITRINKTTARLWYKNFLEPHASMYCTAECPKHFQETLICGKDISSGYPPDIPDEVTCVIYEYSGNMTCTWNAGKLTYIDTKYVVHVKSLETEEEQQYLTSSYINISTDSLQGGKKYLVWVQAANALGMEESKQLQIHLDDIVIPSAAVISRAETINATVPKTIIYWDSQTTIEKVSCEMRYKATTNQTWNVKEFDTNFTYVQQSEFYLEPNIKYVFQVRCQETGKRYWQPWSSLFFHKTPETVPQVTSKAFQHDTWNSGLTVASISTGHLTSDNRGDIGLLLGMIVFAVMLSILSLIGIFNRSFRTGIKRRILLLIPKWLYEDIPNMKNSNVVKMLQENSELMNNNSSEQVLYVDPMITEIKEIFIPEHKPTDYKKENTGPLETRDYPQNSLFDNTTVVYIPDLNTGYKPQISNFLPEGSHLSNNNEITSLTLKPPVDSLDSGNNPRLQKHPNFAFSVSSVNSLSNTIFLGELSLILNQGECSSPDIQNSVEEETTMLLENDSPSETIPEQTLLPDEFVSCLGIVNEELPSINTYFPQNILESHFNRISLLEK
The assay is described as follows: Binding assay (NanoBRET displacement of fluorophore-labelled reference compound) for estimating binding affinity to human IL-23R. The source says:
Binding Assay for Estimating Binding Affinity of Compounds to Human IL-23R
The compound binding affinity for IL-23R was estimated by the ability of compounds to displace a fluorophore-labelled reference compound from the human IL-23R. The assay principle relies on Bioluminescence Resonance Energy Transfer (BRET) between a fluorophore-labelled reference compound binding to the IL-23R part of a fusion protein consisting of the IL-23R fused to a Nanoluc luciferase enzyme (Nanoluc). The Nanoluc is placed in the N-terminus in close proximity to the binding domain of the ligand. Upon close proximity between the fluorophore of the fluorophore-labelled compound and the Nanoluc of the fusion protein, bioluminescence energy generated from conversion of a Nanoluc substrate, is transferred to the fluorophore resulting in an increase in BRET. In presence of an unlabelled compound, the unlabelled compound displaces the fluorophore-labelled peptide from its binding site resulting in a decrease in BRET. The concentration for which half of the fluorophore-labelled peptide is displaced by the unlabelled compound depends on the affinity of the compound for the IL-23R, and is termed the IC50 concentration. An estimated affinity (K) of the unlabelled compound for the IL-23R may be calculated using the Cheng-Prussov equation, which takes into account the concentration of the fluorophore-labelled compound used, and the affinity of the fluorophore-labelled compound for IL-23R.
The plasmid also contained a gene to confer resistance for the antibiotic hygromycin. A cell line stably expressing the Nluc-IL23R fusion protein was generated by transfection of HEK293 cells with the expression plasmid and selected with hygromycin for 3 weeks in Growth medium consisting of DMEM w/Glutamax-I containing, 10% V/V FBS, 1% V/V P/S, 1 mM Sodium Pyruvate, and 1×NEAA, and 0.3 mg/mL hygromycin. The remaining cells were propagated and considered a stable expressing Nluc-IL23R fusion protein pool clone.
Cells expressing the Nluc-IL23R fusion protein were expanded in Growth medium and membranes prepared by homogenization of a cell pellet from 18 T175 flasks (4° C. in subsequent steps). The cell pellet was lysed Tris 10 mM, 7.5, 1 mM EDTA and protease inhibitors (Complete, Roche) and homogenized using a 15 mL glass-dounce by 50 strokes. The homogenate was spun at spin @1500 rpm for 10 min, the supernatant transferred to SV-34 tubes and spun at 40000 g for 20 min at 4° C. to pellet the crude membranes. The supernatant was then removed, the pellet resuspended in 5 mL buffer containing 50 mM HEPES pH 7.4, 5 mM EGTA, and 5 mM MgCl2, and homogenized. Aliquots of the resuspended and homogenized membranes containing the Nluc-IL23R fusion protein were stored at −80° C. until use.
The plate was sealed with light impermeable plate seals, and incubated on a orbital shaker 400 rpm for 2 hours at room temperature. To determine the BRET ratio, the plate seal was removed and 25 μL of the Nanoluc substrate (Promega N1572) diluted 1:500 was added to each well and incubated for 1-2 minutes on an orbital shaker at 400 rpm. […] The BRET ratio was calculated as the fluorescence from the TAMRA/nanoluc bioluminescence. The IC50 for each compound was determined by computer-aided curve fitting using a 4-parameter logistic (4PL) non-linear model.

Where [1] appears, read: Table 3-1, read-out: Ki hIL-23R.

SMILES strings stand for the structures. Like-named read-outs stand apart in the source and are kept apart here. *1 amine or outer side, *2 acyl side, *3 side chain or, on linkers, in order; H or OH if unused. Where a SMILES comes first, the peptide text is derived from it. Bridges are numbered along the chain shown (N, C = ends). [ ]: non-standard residue; d: D form. The star is where a group is joined. Me3N+(CH2)2O(CH2)2O(CH2)2CO = C[N+](C)(C)CCOCCOCCC(=O)*; 2Nal = N[C@@H](Cc1ccc2ccccc2c1)C(=O)O; AEF = NCCOc1ccc(C[C@H](N)C(=O)O)cc1; X24 = O=C(CCc1ccc(N[*:1])cc1)[*:2]; X1 = O=C(Cc1ccc(CN[*:1])cc1)[*:2]; 3Pal = N[C@@H](Cc1cccnc1)C(=O)O; 4Pal = N[C@@H](Cc1ccncc1)C(=O)O; αMeL = CC(C)C[C@](C)(N)C(=O)O; CH2COCH2 = O=C(C[*:1])C[*:2]; αMeV = CC(C)[C@](C)(N)C(=O)O; 3Amb = NCc1cccc(C(=O)O)c1; dDab = NCC[C@@H](N)C(=O)O; Pyrrolidide = C1CCN(*)C1; Dab = NCC[C@H](N)C(=O)O; βAla = NCCC(=O)O Bounds are passed on as bounds.

`CC(C)[C@]1(C)NC(=O)[C@H](Cc2ccc3ccccc3c2)NC(=O)[C@H](Cc2ccc(OCCN)cc2)NC(=O)[C@@H]2CCNC(=O)CC[C@H](NC(=O)[C@H](CO)NC(=O)Cc3ccc(cc3)CNC(=O)CC[C@@H](C(=O)N[C@@H](CCN)C(N)=O)NC1=O)C(=O)N[C@@H](Cc1c[nH]c3ccccc13)C(=O)N[C@@H](CCC(N)=O)C(=O)N2` [Compound 136, [4-Aminomethyl-phenylacetyl](1c)*SE(2c)WQ[Dab](2c)[Y(2-aminoethoxy)][2-Nal][2-Me-Val]E(1c)[Dab]-[NH2]]: the inhibitory constant (Ki) under setting [1] was 0.17 nM.
Still for that read-out and setting: the figure for `CC(C)C[C@]1(C)NC(=O)[C@H](Cc2ccc3ccccc3c2)NC(=O)[C@H](Cc2ccc(OCCN)cc2)NC(=O)[C@@H]2CSCC(=O)CSC[C@H](NC(=O)[C@H](CO)NC(=O)c3cccc(c3)CNC(=O)CC[C@@H](C(=O)N[C@@H](CCCNC(=N)N)C(=O)N[C@@H](Cc3ccncc3)C(N)=O)NC1=O)C(=O)N[C@@H](Cc1c[nH]c3ccccc13)C(=O)N[C@@H](CCC(N)=O)C(=O)N2` [Compound 79, [(3-Aminomethyl)benzoyl](1c)*SC(2a)WQC(2a)[Y(2-aminoethoxy)][2-Nal][2-Me-Leu]E(1c)R[3-(4-Pyridyl)-Ala]-[NH2]] ([3Amb]SCWQC[AEF][2Nal][αMeL]ER[4Pal]-NH2; linker 3-6 via CH2COCH2; lactam N-10) is 2.09 nM.
In the case of `CC[C@H](C)[C@@H]1NC(=O)c2cccc(c2)CNC(=O)CC[C@@H](C(=O)N[C@@H](CCN)C(=O)N[C@@H](Cc2cccnc2)C(N)=O)NC(=O)[C@](C)(C(C)C)NC(=O)[C@H](Cc2ccc3ccccc3c2)NC(=O)[C@H](Cc2ccc(OCCN)cc2)NC(=O)[C@@H]2CCNC(=O)CC[C@H](NC1=O)C(=O)N[C@@H](Cc1c[nH]c3ccccc13)C(=O)N[C@@H](CCC(N)=O)C(=O)N2` [Compound 156, [(3-Aminomethyl)benzoyl](1c)*IE(2c)WQ[Dab](2c)[Y(2-aminoethoxy)][2-Nal][2-Me-Val]E(1c)[Dab][3-(3-Pyridyl)-Ala]-[NH2]] ([3Amb]IEWQ[Dab][AEF][2Nal][αMeV]E[Dab][3Pal]-NH2; lactam 3-6, N-10), the Ki under setting [1] is 0.0157 nM.
Take `CC(C)C[C@]1(C)NC(=O)[C@H](Cc2ccc3ccccc3c2)NC(=O)[C@H](Cc2ccc(OCCN)cc2)NC(=O)[C@@H]2CSCC(=O)CSC[C@H](NC(=O)[C@H](CO)NC(=O)Cc3ccc(cc3)CNC(=O)CC[C@@H](C(=O)N[C@H](CCNC(=O)CCOCCOCC[N+](C)(C)C)C(N)=O)NC1=O)C(=O)N[C@@H](Cc1c[nH]c3ccccc13)C(=O)N[C@@H](CCC(N)=O)C(=O)N2` [Compound 109, [4-Aminomethyl-phenylacetyl](1c)*SC(2a)WQC(2a)[Y(2-aminoethoxy)][2-Nal][2-Me-Leu]E(1c)[{d}2,4-Diaminobutanoyl([2-(trimethyl-2-aminoethoxy)ethoxy]propyl)]-[NH2]] ([X1]SCWQC[AEF][2Nal][αMeL]E[dDab](Me3N+(CH2)2O(CH2)2O(CH2)2CO)-NH2; linker 3-6 via CH2COCH2; lactam N-10): the Ki under setting [1] is 0.46 nM.
The same measure, in the same setting: the figure for `CC(C)C[C@]1(C)NC(=O)[C@H](Cc2ccc3ccccc3c2)NC(=O)[C@H](Cc2ccc(OCCN)cc2)NC(=O)[C@@H]2CSCC(=O)CSC[C@H](NC(=O)[C@H](CO)NC(=O)c3cccc(c3)CNC(=O)CC[C@@H](C(=O)N[C@@H](CCN)C(=O)N[C@@H](Cc3cccnc3)C(N)=O)NC1=O)C(=O)N[C@@H](Cc1c[nH]c3ccccc13)C(=O)N[C@@H](CCC(N)=O)C(=O)N2` [Compound 148, [(3-Aminomethyl)benzoyl](1c)*SC(2a)WQC(2a)[Y(2-aminoethoxy)][2-Nal][2-Me-Leu]E(1c)[Dab][3-(3-Pyridyl)-Ala]-[NH2]] ([3Amb]SCWQC[AEF][2Nal][αMeL]E[Dab][3Pal]-NH2; linker 3-6 via CH2COCH2; lactam N-10) is 0.00897 nM.
For `CC(C)C[C@]1(C)NC(=O)[C@H](Cc2ccc3ccccc3c2)NC(=O)[C@H](Cc2ccc(OCCN)cc2)NC(=O)[C@@H]2CSCC(=O)CSC[C@H](NC(=O)[C@H](CO)NC(=O)CCc3ccc(cc3)NC(=O)CC[C@@H](C(=O)N[C@@H](CCCNC(=N)N)C(N)=O)NC1=O)C(=O)N[C@@H](Cc1c[nH]c3ccccc13)C(=O)N[C@@H](CCC(N)=O)C(=O)N2` [Compound 51, [3-(4-Aminophenyl)propanoyl](1c)*SC(2a)WQC(2a)[Y(2-aminoethoxy)][2-Nal][2-Me-Leu]E(1c)R-[NH2]] ([X24]SCWQC[AEF][2Nal][αMeL]ER-NH2; linker 3-6 via CH2COCH2; lactam N-10), the Ki (Table 2-10b, read-out: Ki IL-23R) was 2 nM.
On to `CC(C)C[C@]1(C)NC(=O)[C@H](Cc2ccc3ccccc3c2)NC(=O)[C@H](Cc2ccc(OCCN)cc2)NC(=O)[C@@H]2CCNC(=O)CC[C@H](NC(=O)[C@H](CO)NC(=O)Cc3ccc(cc3)CNC(=O)CC[C@@H](C(=O)N[C@@H](CCN)C(N)=O)NC1=O)C(=O)N[C@@H](Cc1c[nH]c3ccccc13)C(=O)N[C@@H](CCC(=O)N1CCCC1)C(=O)N2` [Compound 146, [4-Aminomethyl-phenylacetyl](1c)*SE(2c)W[Q(pyrrolidin)][Dab](2c)[Y(2-aminoethoxy)][2-Nal][2-Me-Leu]E(1c)[Dab]-[NH2]] ([X1]SEWE(Pyrrolidide)[Dab][AEF][2Nal][αMeL]E[Dab]-NH2; lactam 3-6, N-10), for which the Ki under setting [1] was 1.01 nM.
For the compound `CC(C)C[C@]1(C)NC(=O)[C@H](Cc2ccc3ccccc3c2)NC(=O)[C@H](Cc2ccc(OCCN)cc2)NC(=O)[C@@H]2CSCC(=O)CSC[C@H](NC(=O)[C@H](CO)NC(=O)Cc3ccc(cc3)CNC(=O)CC[C@@H](C(=O)N[C@@H](CCCNC(=N)N)C(=O)N[C@@H](Cc3cccnc3)C(N)=O)NC1=O)C(=O)N[C@@H](Cc1c[nH]c3ccccc13)C(=O)N[C@@H](CCC(N)=O)C(=O)N2` [Compound 147, [4-Aminomethyl-phenylacetyl](1c)*SC(2a)WQC(2a)[Y(2-aminoethoxy)][2-Nal][2-Me-Leu]E(1c)R[3-(3-Pyridyl)-Ala]-[NH2]] ([X1]SCWQC[AEF][2Nal][αMeL]ER[3Pal]-NH2; linker 3-6 via CH2COCH2; lactam N-10), the Ki under setting [1] is 0.0119 nM.
Turning to `CC(C)C[C@@H]1NC(=O)[C@H](Cc2c[nH]c3ccccc23)NC(=O)[C@H](Cc2c[nH]c3ccccc23)NC(=O)[C@@H]2CSSC[C@H](NC(=O)[C@H](CO)NC(=O)[C@@H](NC(=O)[C@@H](N)CC(=O)O)CSCC(=O)CSC[C@@H](C(=O)N[C@@H](CCCNC(=N)N)C(N)=O)NC1=O)C(=O)N[C@@H](Cc1c[nH]c3ccccc13)C(=O)N[C@@H](CCC(N)=O)C(=O)N2` [Compound 53, H-DC(1a)SC(2b)WQC(2b)WWLC(1a)R-[NH2]], the Ki was > 1000 nM.
For the compound `CC(C)C[C@]1(C)NC(=O)[C@H](Cc2ccc3ccccc3c2)NC(=O)[C@H](Cc2ccc(OCCN)cc2)NC(=O)[C@@H]2CSCC(=O)CSC[C@H](NC(=O)[C@H](CO)NC(=O)Cc3ccc(cc3)CNC(=O)CC[C@@H](C(=O)NCCC(N)=O)NC1=O)C(=O)N[C@@H](Cc1c[nH]c3ccccc13)C(=O)N[C@@H](CCC(N)=O)C(=O)N2` [Compound 119, [4-Aminomethyl-phenylacetyl](1c)*SC(2a)WQC(2a)[Y(2-aminoethoxy)][2-Nal][2-Me-Leu]E(1c)[3-Aminopropanoyl]-[NH2]] ([X1]SCWQC[AEF][2Nal][αMeL]E[βAla]-NH2; linker 3-6 via CH2COCH2; lactam N-10), under setting [1], the Ki was 0.303 nM.

The values are drawn from patent publication US20250154198A1, “PEPTIDE INHIBITORS OF INTERLEUKIN-23 RECEPTOR” (Zealand Pharma A/S, priority 2021, published 2025).
